Reference: ChEMBL document CHEMBL3882724 (2013)

Tests used:
[1] = biological target: T1, Steroid 17-alpha-hydroxylase/17,20 lyase (Homo sapiens, UniProt P05093); test: Inhibition of CYP17 in human testicular microsomes using 17alpha-hydroxypregnenolone as substrate assessed as decrease in DHEA levels after 90 mins by ELISA; set-up: species or system Testis
T1 sequence (P05093 whole entry): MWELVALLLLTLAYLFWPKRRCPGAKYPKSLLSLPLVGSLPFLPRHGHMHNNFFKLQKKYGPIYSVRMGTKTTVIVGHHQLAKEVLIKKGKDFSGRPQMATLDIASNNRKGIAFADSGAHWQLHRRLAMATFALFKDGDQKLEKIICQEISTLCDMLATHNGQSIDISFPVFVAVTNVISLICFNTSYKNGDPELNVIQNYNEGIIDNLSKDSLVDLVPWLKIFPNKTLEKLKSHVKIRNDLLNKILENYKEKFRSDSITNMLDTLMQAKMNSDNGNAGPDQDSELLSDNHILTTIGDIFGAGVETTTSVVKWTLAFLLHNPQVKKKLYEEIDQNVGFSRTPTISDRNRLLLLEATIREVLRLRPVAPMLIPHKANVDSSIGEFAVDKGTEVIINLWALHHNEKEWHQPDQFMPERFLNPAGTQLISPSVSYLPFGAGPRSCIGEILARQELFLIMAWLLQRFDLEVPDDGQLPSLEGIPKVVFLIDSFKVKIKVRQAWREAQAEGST

[2] = Half life in human liver microsomes at 1 uM by LC-MS/MS analysis
[3] = biological target: T2, CYP21 (steroid 21-hydroxylase) (Homo sapiens, UniProt P08686); test: Inhibition of human CYP21 transfected in HEK293 cells assessed as decrease in conversion of progesterone to 11-deoxycorticosterone preincubated for 5 hrs followed by progesterone addition measured after 20 hrs by ELISA; assay type: cell-based; set-up: concentration or dose not given beside the values; conditions: HEK293 cells transfected with human CYP21, probe progesterone
T2 sequence (P08686 whole entry): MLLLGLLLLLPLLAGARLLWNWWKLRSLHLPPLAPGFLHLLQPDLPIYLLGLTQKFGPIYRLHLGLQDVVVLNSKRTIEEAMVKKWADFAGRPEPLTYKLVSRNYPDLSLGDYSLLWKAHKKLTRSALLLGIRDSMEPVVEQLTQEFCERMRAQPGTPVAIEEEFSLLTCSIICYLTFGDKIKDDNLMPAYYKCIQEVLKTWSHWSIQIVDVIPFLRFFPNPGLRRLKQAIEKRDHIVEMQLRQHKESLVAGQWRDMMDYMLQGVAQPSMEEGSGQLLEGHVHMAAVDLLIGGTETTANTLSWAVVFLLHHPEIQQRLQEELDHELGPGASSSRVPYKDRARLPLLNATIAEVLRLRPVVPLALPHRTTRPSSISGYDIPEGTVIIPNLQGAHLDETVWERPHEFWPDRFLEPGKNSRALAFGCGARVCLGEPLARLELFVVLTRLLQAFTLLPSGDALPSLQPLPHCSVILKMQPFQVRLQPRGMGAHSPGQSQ

[4] = biological target: T1, Steroid 17-alpha-hydroxylase/17,20 lyase; test: Inhibition of CYP17 in human testicular microsomes using 17alpha-hydroxypregnenolone as substrate assessed as decrease in DHEA levels at 10 nM after 90 mins by ELISA relative to control; set-up: species or system Testis; conditions: 1.5 h

Row | inhibition at 0.01 µM [4] | SMILES | IC50 [1] | half-life at 1 µM [2] | inhibition at 20 h [3]
1 | – | C[C@]12CC[C@H]3[C@@H](CC(F)[C@]4(O)C[C@@H](O)CC[C@]34C)[C@@H]1CC=C2c1cccnc1 (stereo not given in full) | ≤ 11 nM | 1 to 50 min | ≥ 50%
2 | 1 to 50% | Cc1cncc(C2=CC[C@H]3[C@@H]4CCC5N(C)C(=O)COC[C@]5(C)[C@H]4CC[C@]23C)c1 (stereo not given in full) | – | – | –
3 | 1 to 50% | CCOc1cncc(C2=CC[C@H]3[C@@H]4CC[C@H]5CCCCC[C@]5(C)[C@H]4CC[C@]23C)c1 | – | – | –
4 | – | C[C@]12CC[C@H](O)CC1=CC[C@@H]1[C@@H]2CC[C@]2(C)C(c3cncc(Cl)c3)=CC[C@@H]12 | ≤ 11 nM | 1 to 50 min | ≥ 50%
5 | 1 to 50% | Cc1ccncc1C1=CC[C@H]2[C@@H]3CC[C@H]4CCCCC[C@]4(C)[C@H]3CC[C@]12C | – | – | –
6 | 50 to 80% | C[C@]12CCC(=O)NC[C@@H]1CC[C@@H]1[C@@H]2CC[C@]2(C)C(n3ccnc3)=CC[C@@H]12 | – | – | –
7 | – | CC(=O)N[C@@H]1CC[C@@]2(C)C(=CC[C@@H]3[C@@H]2CC[C@]2(C)C(c4cncc(F)c4)=CC[C@@H]32)C1 | ≤ 11 nM | 1 to 50 min | ≥ 50%
8 | – | COc1cncc(C2=CC[C@H]3[C@@H]4CC=C5C[C@H](NC(=O)C6CC6)CC[C@]5(C)[C@H]4CC[C@]23C)c1 | ≤ 11 nM | 1 to 50 min | ≥ 50%
9 | – | CCCC(=O)N[C@@H]1CC[C@@]2(C)C(=CC[C@@H]3[C@@H]2CC[C@]2(C)C(c4cccnc4)=CC[C@@H]32)C1 | ≤ 11 nM | 1 to 50 min | ≥ 50%
10 | – | C[C@]1(O)CC[C@@]2(C)C(CC[C@H]3C4=CC=C(c5cccnc5)[C@@]4(C)CC[C@@H]32)C1 (stereo not given in full) | ≤ 11 nM | 1 to 50 min | 10 to 50%
11 | – | C[C@]12CC[C@@H](NC(=O)C3CCC3)CC1=CC[C@@H]1[C@@H]2CC[C@]2(C)C(n3ccnc3)=CC[C@@H]12 | ≤ 11 nM | 1 to 50 min | ≥ 50%
12 | 50 to 80% | C[C@]12CCNC(=O)CC[C@@H]1CC[C@@H]1[C@@H]2CC[C@]2(C)C(c3cccnc3)=CC[C@@H]12 | – | – | –
13 | – | C[C@]12CC[C@H]3[C@@H](CC=C4C[C@H](O)CC[C@@]43C)C1=CC=C2c1cccnc1 | ≤ 11 nM | 1 to 50 min | ≥ 50%
14 | – | C[C@]12CC[C@H](O)CC1=CC[C@@H]1[C@@H]2CC[C@]2(C)C(c3cncc(N)c3)=CC[C@@H]12 | ≤ 11 nM | ≥ 50 min | ≥ 50%
15 | 50 to 80% | C[C@]12CC[C@H]3[C@@H](CC[C@H]4CNC(=O)CC[C@@]43C)C1=CC=C2c1cccnc1 | – | – | –
16 | 1 to 50% | CCc1cncc(C2=CC[C@H]3[C@@H]4CC[C@H]5CCCCC[C@]5(C)[C@H]4CC[C@]23C)c1 | – | – | –
17 | – | C[C@]12CC[C@H]3[C@@H](CC(F)[C@@]4(O)C[C@@H](O)CC[C@]34C)[C@@H]1CC=C2c1cccnc1 (stereo not given in full) | ≤ 11 nM | 1 to 50 min | ≥ 50%
18 | – | C[C@]12CC[C@H](O)CC1=CC[C@@H]1[C@@H]2CC[C@]2(C)C(c3cccnc3F)=CC[C@@H]12 | ≤ 11 nM | 1 to 50 min | ≥ 50%
19 | 1 to 50% | C[C@]12CC(=O)C[C@@H]1CC[C@@H]1[C@@H]2CC[C@]2(C)C(n3ccnn3)=CC[C@@H]12 | – | – | –
20 | 1 to 50% | C[C@]12CCCNC[C@@H]1CC[C@@H]1[C@@H]2CC[C@]2(C)C(n3ccnn3)=CC[C@@H]12 | – | – | –

Row | inhibition at 0.01 µM [4] | SMILES | IC50 [1] | half-life at 1 µM [2] | inhibition at 20 h [3]
21 | 1 to 50% | C[C@]12CCNCC[C@@H]1CC[C@@H]1[C@@H]2CC[C@]2(C)C(n3ccnn3)=CC[C@@H]12 | – | – | –
22 | – | C[C@]12CCC(=O)C=C1C(F)C[C@@H]1[C@@H]2CC[C@]2(C)C(c3cncc(F)c3)=CC[C@@H]12 (stereo not given in full) | ≤ 11 nM | 1 to 50 min | ≥ 50%
23 | 50 to 80% | C[C@]12CC[C@H]3[C@@H](CC[C@H]4CNC(=O)CC[C@@]43C)C1=CC=C2n1ccnc1 | – | – | –
24 | – | C[C@]12CCNC(=O)C=C1C(F)C[C@@H]1[C@@H]2CC[C@]2(C)C(c3cccnc3)=CC[C@@H]12 (stereo not given in full) | ≤ 11 nM | 1 to 50 min | ≥ 50%
25 | 50 to 80% | CCCOc1cncc(C2=CC[C@H]3[C@@H]4CCC5=CC(=O)N(C)CC[C@]5(C)[C@H]4CC[C@]23C)c1 | – | – | –
26 | 50 to 80% | COc1cncc(C2=CC[C@H]3[C@@H]4CC=C5CCCC[C@]5(C)[C@H]4CC[C@]23C)c1 | – | – | –
27 | 1 to 50% | C[C@]12CCCCC[C@@H]1CC[C@@H]1[C@@H]2CC[C@]2(C)C(c3cnccc3Cl)=CC[C@@H]12 | – | – | –
28 | 1 to 50% | C[C@]12CC[C@H]3[C@@H](CC[C@H]4CC(=O)NCC[C@@]43C)C1=CC=C2n1ccnn1 | – | – | –
29 | – | C[C@]12CC[C@H]3[C@@H](CC(O)C45CC4CC[C@]35C)C1=CC=C2c1cccnc1 (stereo not given in full) | ≤ 11 nM | 1 to 50 min | ≥ 50%
30 | – | CC(=O)N[C@@H]1CC[C@@]2(C)C(=CC[C@@H]3[C@@H]2CC[C@]2(C)C(c4cncc(C(F)F)c4)=CC[C@@H]32)C1 | ≤ 11 nM | 1 to 50 min | ≥ 50%
31 | 1 to 50% | COC1CC[C@@]2(C)[C@@H](CC[C@@H]3[C@@H]2CC[C@]2(C)C(c4cccnc4)=CC[C@@H]32)C1 (stereo not given in full) | – | – | –
32 | 1 to 50% | C[C@]12CCC(=O)NC[C@@H]1CC[C@@H]1[C@@H]2CC[C@]2(C)C(n3ccnn3)=CC[C@@H]12 | – | – | –
33 | 50 to 80% | Cc1cncc(C2=CC[C@H]3[C@@H]4CC=C5CCCC[C@]5(C)[C@H]4CC[C@]23C)c1 | – | – | –
34 | – | C[C@]12CC[C@H](O)CC1=CC[C@@H]1[C@@H]2CC[C@]2(C)C(c3cncc(F)c3)=CC[C@@H]12 | ≤ 11 nM | ≥ 50 min | ≥ 50%
35 | – | C[C@]1(O)CC[C@@]2(C)C(CC[C@@H]3[C@@H]2CC[C@]2(C)C(c4cccnc4)=CC[C@@H]32)C1 (stereo not given in full) | ≤ 11 nM | 1 to 50 min | ≥ 50%
36 | – | COC(=O)N[C@H]1CC[C@@]2(C)C(CC[C@H]3C4CC=C(c5cccnc5)[C@@]4(C)CC[C@@H]32)C1 (single isomer, unassigned) | – | 1 to 50 min | ≥ 50%
37 | – | C[C@]12CC[C@@H](NC(=O)C3CC3)CC1CC[C@H]1C3CC=C(c4cccnc4)[C@@]3(C)CC[C@@H]12 (single isomer, unassigned) | ≤ 11 nM | 1 to 50 min | ≥ 50%
38 | – | C[C@]12CC[C@@H](NC(=O)C3CC3)CC1=CC[C@H]1C3CC=C(c4cccnc4)[C@@]3(C)CC[C@@H]12 (single isomer, unassigned) | ≤ 11 nM | 1 to 50 min | ≥ 50%
39 | – | CC(=O)NC1CC[C@@]2(C)C(CC[C@@H]3[C@@H]2CC[C@]2(C)C(c4cccnc4)=CC[C@@H]32)C1 (single isomer, unassigned) | ≤ 11 nM | 1 to 50 min | ≥ 50%
